Assay results reported in PMC9395446, “First-in-human phase 1/1b study to evaluate sitravatinib in patients with advanced solid tumors” (Investigational New Drugs, 2022).

Experiment: Safety in phase 1/1b study (DLTs, TRAEs, TEAEs; CTCAE v4.03)
Type: in vivo, human
Source text: Safety assessments included evaluation of DLTs, AEs, physical examinations, vital sign measurements, electrocardiogram recordings and laboratory tests.
A DLT was defined as a grade ≥ 4 hematologic abnormality lasting ≥ 4 days; grade 3 thrombocytopenia with clinically significant bleeding; febrile neutropenia; clinically significant grade ≥ 3 non-hematologic AEs not related to underlying malignancy; intolerable grade 2 AEs; or toxicity resulting in an inability to deliver 80% of the dose during the first treatment cycle.
The safety population included all patients who received ≥ 1 dose of sitravatinib. […] The PK evaluable population included all patients with sufficient concentration-time data for PK parameter evaluation. The modified intent-to-treat (mITT) population included all phase 1b patients who received ≥ 1 dose of study drug.

COCCNCc1ccc(-c2cc3nccc(Oc4ccc(NC(=O)C5(C(=O)Nc6ccc(F)cc6)CC5)cc4F)c3s2)nc1 [sitravatinib, Sitravatinib]
AST increased TRAE, any grade (Overall): 36 (18.7) n (%) | AST increased TRAE, grade ≥3 (Overall): 2 (1.0) n (%) | Abdominal pain TEAE, any grade (Overall): 44 (22.8) n (%) | Abdominal pain TEAE, grade ≥3 (Overall): 6 (3.1) n (%) | Abdominal pain TRAE, any grade (Overall): 22 (11.4) n (%) | Abdominal pain TRAE, grade ≥3 (Overall): 0 n (%) | Anemia TEAE, any grade (Overall): 38 (19.7) n (%) | Anemia TEAE, grade ≥3 (Overall): 12 (6.2) n (%) | Any TEAE (Overall): 190 (98.4) n (%) | Any TRAE (Overall): 174 (90.2) n (%) | Asthenia TEAE, any grade (Overall): 20 (10.4) n (%) | Asthenia TEAE, grade ≥3 (Overall): 0 n (%) | Back pain TEAE, any grade (Overall): 32 (16.6) n (%) | Back pain TEAE, grade ≥3 (Overall): 3 (1.6) n (%) | Blood and lymphatic system disorders TEAE, any grade (Overall): 50 (25.9) n (%) | Blood and lymphatic system disorders TEAE, grade ≥3 (Overall): 20 (10.4) n (%) | Blood creatinine increased TEAE, any grade (Overall): 21 (10.9) n (%) | Blood creatinine increased TEAE, grade ≥3 (Overall): 0 n (%) | Cardiac disorders TEAE, any grade (Overall): 24 (12.4) n (%) | Cardiac disorders TEAE, grade ≥3 (Overall): 10 (5.2) n (%) | Constipation TEAE, any grade (Overall): 66 (34.2) n (%) | Constipation TEAE, grade ≥3 (Overall): 0 n (%) | Constipation TRAE, any grade (Overall): 22 (11.4) n (%) | Constipation TRAE, grade ≥3 (Overall): 0 n (%) | Cough TEAE, any grade (Overall): 34 (17.6) n (%) | Cough TEAE, grade ≥3 (Overall): 0 n (%) | Decreased appetite TEAE, any grade (Overall): 74 (38.3) n (%) | Decreased appetite TEAE, grade ≥3 (Overall): 4 (2.1) n (%) | Decreased appetite TRAE, any grade (Overall): 51 (26.4) n (%) | Decreased appetite TRAE, grade ≥3 (Overall): 2 (1.0) n (%) | Dehydration TEAE, any grade (Overall): 36 (18.7) n (%) | Dehydration TEAE, grade ≥3 (Overall): 5 (2.6) n (%) | Diarrhea TEAE, any grade (Overall): 116 (60.1) n (%) | Diarrhea TEAE, grade ≥3 (Overall): 25 (13.0) n (%) | Diarrhea TRAE, any grade (Overall): 98 (50.8) n (%) | Diarrhea TRAE, grade ≥3 (Overall): 20 (10.4) n (%) | Dizziness TEAE, any grade (Overall): 34 (17.6) n (%) | Dizziness TEAE, grade ≥3 (Overall): 0 n (%) | Dizziness TRAE, any grade (Overall): 20 (10.4) n (%) | Dizziness TRAE, grade ≥3 (Overall): 0 n (%) | Dry mouth TEAE, any grade (Overall): 28 (14.5) n (%) | Dry mouth TEAE, grade ≥3 (Overall): 0 n (%) | Dry mouth TRAE, any grade (Overall): 21 (10.9) n (%) | Dry mouth TRAE, grade ≥3 (Overall): 0 n (%) | Dysphonia TEAE, any grade (Overall): 47 (24.4) n (%) | Dysphonia TEAE, grade ≥3 (Overall): 0 n (%) | Dysphonia TRAE, any grade (Overall): 27 (14.0) n (%) | Dysphonia TRAE, grade ≥3 (Overall): 0 n (%) | Dyspnea TEAE, any grade (Overall): 31 (16.1) n (%) | Dyspnea TEAE, grade ≥3 (Overall): 6 (3.1) n (%) | Edema peripheral TEAE, any grade (Overall): 29 (15.0) n (%) | Edema peripheral TEAE, grade ≥3 (Overall): 1 (0.5) n (%) | Endocrine disorders TEAE, any grade (Overall): 53 (27.5) n (%) | Endocrine disorders TEAE, grade ≥3 (Overall): 2 (1.0) n (%) | Fatigue TEAE, any grade (Overall): 98 (50.8) n (%) | Fatigue TEAE, grade ≥3 (Overall): 19 (9.8) n (%) | Fatigue TRAE, any grade (Overall): 83 (43.0) n (%) | Fatigue TRAE, grade ≥3 (Overall): 14 (7.3) n (%) | Gastrointestinal disorders TEAE, any grade (Overall): 167 (86.5) n (%) | Gastrointestinal disorders TEAE, grade ≥3 (Overall): 49 (25.4) n (%) | General disorders and administration site conditions TEAE, any grade (Overall): 131 (67.9) n (%) | General disorders and administration site conditions TEAE, grade ≥3 (Overall): 23 (11.9) n (%) | Headache TEAE, any grade (Overall): 40 (20.7) n (%) | Headache TEAE, grade ≥3 (Overall): 2 (1.0) n (%) | Hypertension TEAE, any grade (Overall): 88 (45.6) n (%) | Hypertension TEAE, grade ≥3 (Overall): 47 (24.4) n (%) | Hypertension TRAE, any grade (Overall): 78 (40.4) n (%) | Hypertension TRAE, grade ≥3 (Overall): 40 (20.7) n (%) | Hypokalemia TEAE, any grade (Overall): 20 (10.4) n (%) | Hypokalemia TEAE, grade ≥3 (Overall): 3 (1.6) n (%) | Hypomagnesemia TEAE, any grade (Overall): 24 (12.4) n (%) | Hypomagnesemia TEAE, grade ≥3 (Overall): 0 n (%) | Hyponatremia TEAE, any grade (Overall): 25 (13.0) n (%) | Hyponatremia TEAE, grade ≥3 (Overall): 11 (5.7) n (%) | Hypophosphatemia TEAE, any grade (Overall): 20 (10.4) n (%) | Hypophosphatemia TEAE, grade ≥3 (Overall): 11 (5.7) n (%) | Hypothyroidism TEAE, any grade (Overall): 47 (24.4) n (%) | Hypothyroidism TEAE, grade ≥3 (Overall): 0 n (%) | Hypothyroidism TRAE, any grade (Overall): 33 (17.1) n (%) | Hypothyroidism TRAE, grade ≥3 (Overall): 0 n (%) | Infections and infestations TEAE, any grade (Overall): 74 (38.3) n (%) | Infections and infestations TEAE, grade ≥3 (Overall): 24 (12.4) n (%) | Injury, poisoning, procedural complications TEAE, any grade (Overall): 35 (18.1) n (%) | Injury, poisoning, procedural complications TEAE, grade ≥3 (Overall): 2 (1.0) n (%) | Investigations TEAE, any grade (Overall): 116 (60.1) n (%) | Investigations TEAE, grade ≥3 (Overall): 36 (18.7) n (%) | Lipase increased TEAE, any grade (Overall): 26 (13.5) n (%) | Lipase increased TEAE, grade ≥3 (Overall): 14 (7.3) n (%) | Metabolism and nutrition disorders TEAE, any grade (Overall): 130 (67.4) n (%) | Metabolism and nutrition disorders TEAE, grade ≥3 (Overall): 41 (21.2) n (%) | Musculoskeletal and connective tissue disorders TEAE, any grade (Overall): 103 (53.4) n (%) | Musculoskeletal and connective tissue disorders TEAE, grade ≥3 (Overall): 10 (5.2) n (%) | Nausea TEAE, any grade (Overall): 81 (42.0) n (%) | Nausea TEAE, grade ≥3 (Overall): 8 (4.1) n (%) | Nausea TRAE, any grade (Overall): 58 (30.1) n (%) | Nausea TRAE, grade ≥3 (Overall): 5 (2.6) n (%) | Neoplasms benign, malignant, unspecified TEAE, any grade (Overall): 24 (12.4) n (%) | Neoplasms benign, malignant, unspecified TEAE, grade ≥3 (Overall): 19 (9.8) n (%) | Nervous system disorders TEAE, any grade (Overall): 92 (47.7) n (%) | Nervous system disorders TEAE, grade ≥3 (Overall): 8 (4.1) n (%) | PPE syndrome TEAE, any grade (Overall): 41 (21.2) n (%) | PPE syndrome TEAE, grade ≥3 (Overall): 11 (5.7) n (%) | PPE syndrome TRAE, any grade (Overall): 39 (20.2) n (%) | PPE syndrome TRAE, grade ≥3 (Overall): 11 (5.7) n (%) | Pain in extremity TEAE, any grade (Overall): 21 (10.9) n (%) | Pain in extremity TEAE, grade ≥3 (Overall): 2 (1.0) n (%) | Proteinuria TEAE, any grade (Overall): 26 (13.5) n (%) | Proteinuria TEAE, grade ≥3 (Overall): 2 (1.0) n (%) | Proteinuria TRAE, any grade (Overall): 22 (11.4) n (%) | Proteinuria TRAE, grade ≥3 (Overall): 2 (1.0) n (%) | Psychiatric disorders TEAE, any grade (Overall): 39 (20.2) n (%) | Psychiatric disorders TEAE, grade ≥3 (Overall): 4 (2.1) n (%) | Rash TEAE, any grade (Overall): 26 (13.5) n (%) | Rash TEAE, grade ≥3 (Overall): 2 (1.0) n (%) | Rash TRAE, any grade (Overall): 21 (10.9) n (%) | Rash TRAE, grade ≥3 (Overall): 2 (1.0) n (%) | Renal and urinary disorders TEAE, any grade (Overall): 51 (26.4) n (%) | Renal and urinary disorders TEAE, grade ≥3 (Overall): 6 (3.1) n (%) | Respiratory, thoracic and mediastinal disorders TEAE, any grade (Overall): 121 (62.7) n (%) | Respiratory, thoracic and mediastinal disorders TEAE, grade ≥3 (Overall): 21 (10.9) n (%) | Serious TEAE (Overall): 79 (40.9) n (%) | Serious TRAE (Overall): 30 (15.5) n (%) | Skin and subcutaneous tissue disorders TEAE, any grade (Overall): 109 (56.5) n (%) | Skin and subcutaneous tissue disorders TEAE, grade ≥3 (Overall): 15 (7.8) n (%) | Stomatitis TEAE, any grade (Overall): 29 (15.0) n (%) | Stomatitis TEAE, grade ≥3 (Overall): 2 (1.0) n (%) | Stomatitis TRAE, any grade (Overall): 28 (14.5) n (%) | Stomatitis TRAE, grade ≥3 (Overall): 2 (1.0) n (%) | TEAE grade ≥3 (Overall): 145 (75.1) n (%) | TEAE leading to death (Overall): 21 (10.9) n (%) | TEAE leading to discontinuation (Overall): 41 (21.2) n (%) | TEAE leading to treatment modification (Overall): 133 (68.9) n (%) | TRAE grade ≥3 (Overall): 103 (53.4) n (%) | TRAE leading to death (Overall): 1 (0.5) n (%) | TRAE leading to discontinuation (Overall): 26 (13.5) n (%) | TRAE leading to treatment modification (Overall): 120 (62.2) n (%) | UTI TEAE, any grade (Overall): 23 (11.9) n (%) | UTI TEAE, grade ≥3 (Overall): 6 (3.1) n (%) | Vascular disorders TEAE, any grade (Overall): 106 (54.9) n (%) | Vascular disorders TEAE, grade ≥3 (Overall): 50 (25.9) n (%) | Vomiting TEAE, any grade (Overall): 61 (31.6) n (%) | Vomiting TEAE, grade ≥3 (Overall): 11 (5.7) n (%) | Vomiting TRAE, any grade (Overall): 46 (23.8) n (%) | Vomiting TRAE, grade ≥3 (Overall): 5 (2.6) n (%) | Weight decreased TEAE, any grade (Overall): 42 (21.8) n (%) | Weight decreased TEAE, grade ≥3 (Overall): 3 (1.6) n (%) | Weight decreased TRAE, any grade (Overall): 27 (14.0) n (%) | Weight decreased TRAE, grade ≥3 (Overall): 2 (1.0) n (%) | ALT increased TEAE, any grade (Phase 1): 4 (12.5) n (%) | ALT increased TEAE, grade ≥3 (Phase 1): 1 (3.1) n (%) | ALT increased TRAE, any grade (Phase 1): 2 (6.3) n (%) | ALT increased TRAE, grade ≥3 (Phase 1): 0 n (%) | AST increased TEAE, any grade (Phase 1): 5 (15.6) n (%) | AST increased TEAE, grade ≥3 (Phase 1): 1 (3.1) n (%) | AST increased TRAE, any grade (Phase 1): 2 (6.3) n (%) | AST increased TRAE, grade ≥3 (Phase 1): 0 n (%) | Abdominal pain TEAE, any grade (Phase 1): 4 (12.5) n (%) | Abdominal pain TEAE, grade ≥3 (Phase 1): 1 (3.1) n (%)
